Results from patent US4849428A, “Cyclic anti-inflammatory derivatives of di-tert-butylphenol compounds, compositions and use” (The Procter & Gamble Company, priority 1987, dated 1989).

Experiments:
[1] = test system: rheumatoid arthritis or osteoarthritis; assay: Oral capsules in patients with rheumatoid arthritis or osteoarthritis; assay type: in vivo, patient; settings: capsule, orally once a day
Procedure: Capsules are prepared by conventional methods, comprised as follows: […]

[2] = test system: Carrageenan Rat Paw Edema; assay: Carrageenan Rat Paw Edema Test; assay type: in vivo, Male Sprague-Dawley rats; settings: for Percent Inhibition at 100 mg/kg dose p.o.: 100 mg/kg p.o. 1 h before carrageenan, paw volume 4 h after carrageenan, relative to control; for ED35: oral, by regression analysis, read-out: ID35
Procedure: Carrageenan Rat Paw Edema Test
Male Sprague-Dawley rats (Charles River Laboratories) are weighed and food fasted overnight. The animals are then divided into four to six groups of six animals each according to body weights (average about 145 g) so that each group has about the same average body weight (within 10 g).
The following morning animals are dosed with the test compound and then placed in individual cages. For oral dosing, the drug is suspended in 0.5% methyl cellulose with 2% Tween 80, and delivered via stomach tube in a 5 ml volume.
Paw volumes (0 time) are determined on both hind paws with a mercury displacement device equipped with a transducer and digitizer. One hour after dosing the test compound, the animals are placed in a plastic restrainer and 50 ul of a 1% (w/w) carrageenan solution in 0.9% saline is injected into the ventral surface of the left rear paw. Four hours after the carrageenan injection, the paw volumes are again determined.
The results are expressed as percent inhibition of the mean paw volume of the test group relative to the control group. Statistical differences are determined by one way analysis of variance. ID35 values are determined by regression analysis.

[3] = test system: osteoarthritis; assay: Oral tablets in patients with osteoarthritis; assay type: in vivo, patient; settings: tablet, twice daily
Procedure: (§1) Tablets are prepared by conventional methods, such as mixing and direct compaction, formulated as follows: […]

[4] = test system: rheumatoid arthritis; assay: Oral tablets in patients with rheumatoid arthritis; assay type: in vivo, patient; settings: tablet, orally two times daily
Procedure: as §1

SMILES	reduction of symptomology in rheumatoid arthritis or osteoarthritis patient [1]	Percent Inhibition at 100 mg/kg dose p.o. [2] [%]	ED35 [2] [mg/kg]	benefit in osteoarthritis patient [3]	reduction of inflammation in rheumatoid arthritis patient [4]
C#CCCCC(=O)c1cc(C(C)(C)C)c2c(c1)C(C)(C)CO2 [Compound 8C]	substantially reduces the symptomology	48.8	2.4	significant benefit	significantly reduces the inflammation
C#CC(O)CCC(=O)c1cc(C(C)(C)C)c2c(c1)C(C)(C)CO2 (stereo not drawn) [Compound 8D]		60.8	1.6		
C#CCCCC(=O)c1cc(C(C)(C)C)c2c(c1)C(C)(C)C(O)O2 (stereo not drawn) [Compound 13C]		53.2	12.9		
